The text below walks through data of patent publication US20180153826A1, “MATERIALS AND METHODS FOR THE TREATMENT OF CYSTIC FIBROSIS” (UNIVERSITY OF FLORIDA RESEARCH FOUNDATION, INC., priority 2015, published 2018).

Molecules are shown by their SMILES.

Common to all, as to set-up: species or system rat
In test [1] the test system is Cl^−/HCO3^− exchange. The test can be described thus: Cl^−/HCO3^− exchange activity (Cl^−-dependent HCO3^− secretion). The note with it: 10 μM, added to serosal side. As to the method:
(§1) Stripped mucosal sheets were mounted into Ussing chambers (window area=0.3-0.5 cm^2, Physiologic Instruments, San Diego, Calif.). The mucosal side of tissue was bathed with an unbuffered HCO3^−-free Cl^− Ringer solution (see Table 2 for detailed composition) circulated by a gas lift with 100% O2 while the serosal side was bathed with buffered Cl^− Ringer solution (pH 7.4) that contained 25 mM HCO3^− and gassed with 5% CO2/95% O2. Each side contained 3-5 ml of solution and the temperature of the solution was adjusted to and maintained at 37° C. by heated water-jacketed reservoirs. […]
(§2) Two types of approaches were used in the measurement of colonic HCO3^− secretion, namely, measurement of lumen pH or pH stat titration of net alkalinization by colonic mucosa. […] The amount of the acid delivered per unit time per surface area was used to quantitate HCO3^− secretion by the mucosa. Measurements were recorded continuously and mean values for consecutive 5 or 10 min periods were averaged. The rate of HCO3^− secretion (JHCO3) is expressed as μEq/hr/cm^2. The short-circuit current (Isc) was measured in microamperes (μA) and converted into μEq/hr/cm^2. Tissue resistance (R, Ω cm^2) was calculated from Ohm's law. […]

Test [2] has as its system ENaC. In words: ENaC activity as amiloride-sensitive bumetanide-insensitive Isc, weanling distal colon. The note with it: 10 μM; 2-3 week old rat distal colon. As to the method:
FIG. 17. The inhibitory effect of […] on ENaC was examined electrophysiologically by measuring amiloride-sensitive short-circuit current responses in the presence or absence of […]. Weanling infant distal colonic mucosa, which expresses highest activity of ENaC, is employed and mounted in Ussing chamber. FIGS. 19A-19C. […] Here, the activity of ENaC is measured as amiloride-sensitive bumetanide-insensitive Isc. […] FIGS. 20A-20C. […] The activity of ENaC was measured as amiloride-sensitive bumetanide-insensitive Isc. […] Secretory Cl current is mediated by apical CFTR. This Cl secretory Isc is sensitive to bumetanide, applied to the basolateral side of the epithelium. There, bumetanide inhibits Cl entry from blood into the cell; thus, in the presence of bumetanide, the secretory Cl current is eliminated. Absorptive Na current is mediated by apically located epithelial Na channel (ENaC). This latter current is particularly high in this weanling age and is sensitive to amiloride, when it is applied luminally.

The test system of test [3] is HCO3^− secretion by colonic mucosa. The test can be described thus: Acid-induced HCO3^− secretion (lumen pH recovery). The note with it: 10 μM, serosa. The protocol: as §1, §2
Test [4] concerns SCFA/HCO3^− exchange. The test can be described thus: SCFA/HCO3^− exchange activity (isobutyrate-dependent HCO3^− secretion). The note with it: 10 μM serosa; 25 mM isobutyrate lumen. The protocol: as §1
Two types of approaches were used in the measurement of colonic HCO3^− secretion, namely, measurement of lumen pH or pH stat titration of net alkalinization by colonic mucosa. […] The amount of the acid delivered per unit time per surface area was used to quantitate HCO3^− secretion by the mucosa. Measurements were recorded continuously and mean values for consecutive 5 or 10 min periods were averaged. The rate of HCO3^− secretion (JHCO3) is expressed as μEq/hr/cm^2. The short-circuit current (Isc) was measured in microamperes (μA) and converted into μEq/hr/cm^2. Tissue resistance (R, Ω cm^2) was calculated from Ohm's law.
SCFA/HCO3^− exchange activity was calculated as ΔJHCO3 (the difference between JHCO3 in the presence minus absence of luminal isobutyrate).

The subject of test [5] is HCO3^− secretion by colonic mucosa. The test can be described thus: Secretagogue (forskolin)-induced HCO3^− secretion, lumen Cl^−-containing Ringer. The note with it: 10 μM serosa, added after forskolin 500 nM. The protocol: as §1, §2

For `COc1cccc([C@@H](C)NCCCc2ccccc2Cl)c1.Cl` [R568, 2-Chloro-N-[(1R)-1-(3-methoxyphenyl)ethyl]-benzenepropanamine hydrochloride], in test [1], the “Cl^−/HCO3^− exchange activity” value is “stimulation”. For the same molecule, the “bumetanide-insensitive amiloride-inhibitable ENaC-mediated basal Isc” value in test [2] is “inhibited”. Moreover, the “acid-induced HCO3^− secretion (pH recovery rate)” value in test [3] was “transient but significant stimulation”. Further, the “isobutyrate-dependent HCO3^− secretion” value in test [4] is reported as “significantly stimulated”. Moreover, the “effect on forskolin-induced HCO3^− secretion” value in test [5] is reported as “did not increase but rather decreased”.
